Results as given in PMC4770715, “LIM kinase inhibitors disrupt mitotic microtubule organization and impair tumor cell proliferation” (Oncotarget, 2015).

Assays:
Test in all cases: biochemical
Design in all cases: KINOMEscan active-site competition binding, percent of control (100 = no competition)
Conditions in all cases: competition binding, percent control
IGF1R = IGF1R (Homo sapiens, UniProt P08069)
Excerpt: (§1) Given the potential for the use of LIMK inhibitors as cancer chemotherapeutics, a high-throughput drug discovery and medicinal chemistry program was undertaken. Details of the screening methodology and description of initial hit matter were described in [38]. […] Details of their chemical synthesis are described in Charles et al.. […] These and additional physiochemical parameters are in Supplemental Table 5. […] Kinases inhibited >25% to 50% have yellow circles, 51% to 75% have orange circles, and >76% have red circles. In each case, the size of the circle is proportional to percentage inhibition. LIMK1 and LIMK2 positions are indicated in blue. Illustration reproduced courtesy of Cell Signaling Technology, Inc. (www.cellsignal.com). B. CRT0105950 structure and kinome selectivity mapping as described above. C.

YANK1 = target: T1, YANK1 (Homo sapiens, UniProt Q8WU08)
T1 construct: gene STK32A
Excerpt: as §1

GSK3B = GSK3B (Homo sapiens, UniProt P49841)
Excerpt: as §1

AURKC = AURKC (Homo sapiens, UniProt Q9UQB9)
Excerpt: as §1

FLT1 = FLT1 (Homo sapiens, UniProt P17948)
Excerpt: as §1

PAK6 = PAK6 (Homo sapiens, UniProt Q9NQU5)
Excerpt: as §1

CHEK1 = CHEK1 (Homo sapiens, UniProt O14757)
Excerpt: as §1

[1] = target: T2, RSK3(Kin.Dom.1-N-terminal) (Homo sapiens, UniProt Q15349)
T2 construct: gene RPS6KA2; Kin.Dom.1-N-terminal
Excerpt: as §1

[2] = target: T3, RPS6KA4(Kin.Dom.2-C-terminal) (Homo sapiens, UniProt O75676)
T3 construct: Kin.Dom.2-C-terminal
Excerpt: as §1

CSNK1E = CSNK1E (Homo sapiens, UniProt P49674)
Excerpt: as §1

[3] = target: T4, RSK1(Kin.Dom.2-C-terminal) (Homo sapiens, UniProt Q15418)
T4 construct: gene RPS6KA1; Kin.Dom.2-C-terminal
Excerpt: as §1

FGFR3 = FGFR3 (Homo sapiens, UniProt P22607)
Excerpt: as §1

MERTK = MERTK (Homo sapiens, UniProt Q12866)
Excerpt: as §1

LOK = target: T5, LOK (Homo sapiens, UniProt O94804)
T5 construct: gene STK10
Excerpt: as §1

CDK2 = CDK2 (Homo sapiens, UniProt P24941)
Excerpt: as §1

TLK1 = TLK1 (Homo sapiens, UniProt Q9UKI8)
Excerpt: as §1

PFPK5(P.falciparum) = target: T6, PFPK5(P.falciparum) (Plasmodium falciparum, UniProt P61075)
T6 construct: gene CRK2
Excerpt: as §1

MKK7 = target: T7, MKK7 (Homo sapiens, UniProt O14733)
T7 construct: gene MAP2K7
Excerpt: as §1

TNIK = TNIK (Homo sapiens, UniProt Q9UKE5)
Excerpt: as §1

ACVR1 = ACVR1 (Homo sapiens, UniProt Q04771)
Excerpt: as §1

LTK = LTK (Homo sapiens, UniProt P29376)
Excerpt: as §1

EPHA6 = EPHA6 (Homo sapiens, UniProt Q9UF33)
Excerpt: as §1

CDK4-cyclinD3 = target: T8, CDK4-cyclinD3 (Homo sapiens, UniProt P11802)
T8 construct: cyclinD3
Excerpt: as §1

Chain of FLT1 (P17948 whole entry): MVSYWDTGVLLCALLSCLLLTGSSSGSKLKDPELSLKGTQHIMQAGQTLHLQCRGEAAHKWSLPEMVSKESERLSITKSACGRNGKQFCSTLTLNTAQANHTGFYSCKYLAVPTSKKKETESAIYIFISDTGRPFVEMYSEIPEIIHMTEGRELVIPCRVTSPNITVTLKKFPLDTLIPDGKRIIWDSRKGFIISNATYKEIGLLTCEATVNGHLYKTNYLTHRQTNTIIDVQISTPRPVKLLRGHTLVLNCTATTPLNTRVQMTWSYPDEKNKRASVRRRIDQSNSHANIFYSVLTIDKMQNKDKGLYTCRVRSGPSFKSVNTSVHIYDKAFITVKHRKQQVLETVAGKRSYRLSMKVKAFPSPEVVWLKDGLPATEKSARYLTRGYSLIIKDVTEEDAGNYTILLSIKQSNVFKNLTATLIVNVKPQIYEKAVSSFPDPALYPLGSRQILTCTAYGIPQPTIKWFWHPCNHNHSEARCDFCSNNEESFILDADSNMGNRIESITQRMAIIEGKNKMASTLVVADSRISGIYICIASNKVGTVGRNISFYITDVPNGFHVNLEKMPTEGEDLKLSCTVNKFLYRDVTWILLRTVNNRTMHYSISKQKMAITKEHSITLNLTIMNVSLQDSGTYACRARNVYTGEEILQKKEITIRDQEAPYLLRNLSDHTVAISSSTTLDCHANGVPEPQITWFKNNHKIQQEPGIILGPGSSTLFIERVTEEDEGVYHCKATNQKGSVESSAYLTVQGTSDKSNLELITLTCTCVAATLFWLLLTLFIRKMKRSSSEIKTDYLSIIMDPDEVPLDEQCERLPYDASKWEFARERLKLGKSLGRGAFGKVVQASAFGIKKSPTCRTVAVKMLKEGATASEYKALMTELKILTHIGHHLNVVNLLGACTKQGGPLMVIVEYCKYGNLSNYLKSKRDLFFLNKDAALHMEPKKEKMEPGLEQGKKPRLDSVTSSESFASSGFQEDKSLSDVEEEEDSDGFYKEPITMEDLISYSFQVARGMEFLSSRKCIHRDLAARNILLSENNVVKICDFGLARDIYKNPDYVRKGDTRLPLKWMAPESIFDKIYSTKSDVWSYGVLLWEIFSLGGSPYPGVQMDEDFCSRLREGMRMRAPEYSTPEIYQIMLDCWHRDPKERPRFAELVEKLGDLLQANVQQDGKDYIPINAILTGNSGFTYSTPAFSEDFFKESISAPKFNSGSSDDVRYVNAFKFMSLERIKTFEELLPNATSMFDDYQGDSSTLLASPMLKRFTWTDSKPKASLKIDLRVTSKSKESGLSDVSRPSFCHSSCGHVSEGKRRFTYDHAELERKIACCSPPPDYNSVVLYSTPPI
T1 sequence (Q8WU08 whole entry): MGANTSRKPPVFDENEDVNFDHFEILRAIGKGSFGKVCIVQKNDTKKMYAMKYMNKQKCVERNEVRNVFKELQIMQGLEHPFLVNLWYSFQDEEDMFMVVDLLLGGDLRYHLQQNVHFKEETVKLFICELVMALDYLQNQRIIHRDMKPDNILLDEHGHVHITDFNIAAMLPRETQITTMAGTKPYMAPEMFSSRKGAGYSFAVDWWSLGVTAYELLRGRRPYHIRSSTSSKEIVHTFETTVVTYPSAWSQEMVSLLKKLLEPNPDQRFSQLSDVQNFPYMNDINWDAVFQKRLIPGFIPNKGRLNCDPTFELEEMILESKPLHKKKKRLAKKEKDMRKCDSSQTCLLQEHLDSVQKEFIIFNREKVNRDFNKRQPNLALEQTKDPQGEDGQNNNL
Chain of IGF1R (P08069 whole entry): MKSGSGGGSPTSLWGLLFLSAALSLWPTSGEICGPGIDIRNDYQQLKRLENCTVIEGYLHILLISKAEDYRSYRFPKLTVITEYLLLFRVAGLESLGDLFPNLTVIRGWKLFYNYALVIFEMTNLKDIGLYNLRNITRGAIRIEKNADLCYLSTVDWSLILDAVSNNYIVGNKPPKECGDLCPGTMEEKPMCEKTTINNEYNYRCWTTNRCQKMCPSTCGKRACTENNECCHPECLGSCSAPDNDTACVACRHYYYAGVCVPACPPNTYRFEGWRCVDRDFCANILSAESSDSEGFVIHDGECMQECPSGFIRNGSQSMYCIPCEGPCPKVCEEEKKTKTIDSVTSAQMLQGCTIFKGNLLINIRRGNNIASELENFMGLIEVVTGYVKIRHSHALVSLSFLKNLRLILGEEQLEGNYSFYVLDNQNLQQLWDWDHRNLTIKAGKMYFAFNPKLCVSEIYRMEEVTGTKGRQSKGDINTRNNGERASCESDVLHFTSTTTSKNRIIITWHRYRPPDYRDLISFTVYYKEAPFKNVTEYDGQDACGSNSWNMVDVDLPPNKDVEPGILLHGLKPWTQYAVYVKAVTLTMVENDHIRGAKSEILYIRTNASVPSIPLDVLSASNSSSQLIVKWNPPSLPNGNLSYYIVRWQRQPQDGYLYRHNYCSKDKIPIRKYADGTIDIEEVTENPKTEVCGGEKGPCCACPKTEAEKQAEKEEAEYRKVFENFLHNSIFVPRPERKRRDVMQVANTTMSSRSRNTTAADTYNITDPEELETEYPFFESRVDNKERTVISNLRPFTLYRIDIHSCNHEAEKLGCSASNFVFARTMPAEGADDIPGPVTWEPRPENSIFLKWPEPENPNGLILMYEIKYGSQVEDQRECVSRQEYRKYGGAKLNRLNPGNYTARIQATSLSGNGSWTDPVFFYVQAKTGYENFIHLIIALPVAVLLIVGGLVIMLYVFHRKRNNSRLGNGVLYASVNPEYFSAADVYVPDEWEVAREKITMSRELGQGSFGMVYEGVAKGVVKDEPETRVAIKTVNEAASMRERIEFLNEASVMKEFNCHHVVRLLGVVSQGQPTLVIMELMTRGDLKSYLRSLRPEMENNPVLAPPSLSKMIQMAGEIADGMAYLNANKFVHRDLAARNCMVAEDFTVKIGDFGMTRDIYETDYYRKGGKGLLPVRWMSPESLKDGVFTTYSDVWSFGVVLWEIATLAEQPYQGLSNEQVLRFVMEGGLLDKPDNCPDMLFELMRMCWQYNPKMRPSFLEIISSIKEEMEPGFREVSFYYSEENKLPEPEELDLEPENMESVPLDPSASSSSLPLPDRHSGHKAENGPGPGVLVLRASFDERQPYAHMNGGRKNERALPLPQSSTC
T7 sequence (O14733 whole entry): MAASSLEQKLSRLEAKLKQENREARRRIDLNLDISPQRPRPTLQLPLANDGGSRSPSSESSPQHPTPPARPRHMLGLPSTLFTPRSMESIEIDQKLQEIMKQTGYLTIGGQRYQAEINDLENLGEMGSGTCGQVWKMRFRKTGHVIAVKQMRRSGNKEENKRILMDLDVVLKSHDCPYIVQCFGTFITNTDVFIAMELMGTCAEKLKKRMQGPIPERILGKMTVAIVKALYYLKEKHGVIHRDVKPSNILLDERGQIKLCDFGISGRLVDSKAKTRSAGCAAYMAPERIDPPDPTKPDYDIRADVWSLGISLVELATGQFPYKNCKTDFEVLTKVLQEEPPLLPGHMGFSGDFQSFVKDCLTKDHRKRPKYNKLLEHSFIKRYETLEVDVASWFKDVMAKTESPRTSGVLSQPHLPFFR
T5 sequence (O94804 whole entry): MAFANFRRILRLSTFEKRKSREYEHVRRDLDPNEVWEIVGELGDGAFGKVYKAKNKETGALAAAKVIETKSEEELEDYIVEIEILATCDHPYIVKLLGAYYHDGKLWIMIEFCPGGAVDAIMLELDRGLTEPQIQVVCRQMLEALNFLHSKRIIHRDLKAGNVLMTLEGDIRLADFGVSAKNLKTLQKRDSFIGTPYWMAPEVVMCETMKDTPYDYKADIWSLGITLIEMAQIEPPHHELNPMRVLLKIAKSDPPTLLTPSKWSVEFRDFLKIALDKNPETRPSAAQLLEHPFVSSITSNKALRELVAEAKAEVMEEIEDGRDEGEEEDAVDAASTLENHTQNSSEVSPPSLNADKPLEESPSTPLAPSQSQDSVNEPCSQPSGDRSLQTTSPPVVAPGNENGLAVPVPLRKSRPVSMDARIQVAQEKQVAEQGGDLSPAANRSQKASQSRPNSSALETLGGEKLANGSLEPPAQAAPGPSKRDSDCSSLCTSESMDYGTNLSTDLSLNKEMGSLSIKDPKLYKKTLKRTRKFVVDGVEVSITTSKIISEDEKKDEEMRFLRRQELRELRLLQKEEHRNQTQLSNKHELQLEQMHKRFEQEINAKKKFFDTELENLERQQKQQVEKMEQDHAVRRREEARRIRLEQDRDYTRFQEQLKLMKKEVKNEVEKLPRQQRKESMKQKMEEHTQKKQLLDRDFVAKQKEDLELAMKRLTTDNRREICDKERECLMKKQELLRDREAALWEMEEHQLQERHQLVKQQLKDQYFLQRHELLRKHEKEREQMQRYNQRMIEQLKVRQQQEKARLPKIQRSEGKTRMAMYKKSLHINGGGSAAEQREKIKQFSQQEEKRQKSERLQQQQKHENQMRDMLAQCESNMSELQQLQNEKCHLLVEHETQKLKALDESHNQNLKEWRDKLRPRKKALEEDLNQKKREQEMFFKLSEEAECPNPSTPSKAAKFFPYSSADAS
Chain of ACVR1 (Q04771 whole entry): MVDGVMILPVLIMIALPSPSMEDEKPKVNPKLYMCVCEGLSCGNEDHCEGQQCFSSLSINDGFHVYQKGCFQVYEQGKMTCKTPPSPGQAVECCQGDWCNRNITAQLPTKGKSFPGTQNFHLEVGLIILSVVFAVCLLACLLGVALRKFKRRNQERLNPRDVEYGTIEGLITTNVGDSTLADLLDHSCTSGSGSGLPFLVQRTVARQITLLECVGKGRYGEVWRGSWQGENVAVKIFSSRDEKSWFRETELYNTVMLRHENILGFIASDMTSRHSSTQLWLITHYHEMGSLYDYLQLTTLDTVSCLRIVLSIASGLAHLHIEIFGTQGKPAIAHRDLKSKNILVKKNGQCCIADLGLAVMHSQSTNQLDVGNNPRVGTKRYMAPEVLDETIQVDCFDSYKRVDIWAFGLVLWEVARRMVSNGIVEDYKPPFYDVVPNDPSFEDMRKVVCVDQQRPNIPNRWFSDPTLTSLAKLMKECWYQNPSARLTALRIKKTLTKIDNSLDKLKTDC

SMILES	remaining binding at 10 µM (IGF1R) [%]	remaining binding at 10 µM (YANK1) [%]	remaining binding at 10 µM (GSK3B) [%]	remaining binding at 10 µM (AURKC) [%]	remaining binding at 10 µM (FLT1) [%]	remaining binding at 10 µM (PAK6) [%]	remaining binding at 10 µM (CHEK1) [%]	remaining binding at 10 µM [1] [%]	remaining binding at 10 µM [2] [%]	remaining binding at 10 µM (CSNK1E) [%]	remaining binding at 10 µM [3] [%]	remaining binding at 10 µM (FGFR3) [%]	remaining binding at 10 µM (MERTK) [%]	remaining binding at 10 µM (LOK) [%]	remaining binding at 10 µM (CDK2) [%]	remaining binding at 10 µM (TLK1) [%]	remaining binding at 10 µM (PFPK5(P.falciparum)) [%]	remaining binding at 10 µM (MKK7) [%]	remaining binding at 10 µM (TNIK) [%]	remaining binding at 10 µM (ACVR1) [%]	other results
COc1ccc(-c2cnccc2-c2cnc(NC(=O)C(C)C)s2)c(C(F)(F)F)c1 [CRT0105446, N-{5-[3-(4-Methoxy-2-trifluoromethyl-phenyl)-pyridin-4-yl]-hiazol-2-yl}-isobutyramide]	100	69	82	88	80	93	100	71	57	42	43	96	69	100	0.9	100	100	97	89	100	remaining binding at 10 µM (LTK): 100%; remaining binding at 10 µM (EPHA6): 86%; remaining binding at 10 µM (CDK4-cyclinD3): 48%
Cc1ccc(-c2cnccc2-c2cnc(Nc3ccc(O)cc3)s2)c(Cl)c1 [CRT0105950, 4-{5-[3-(2-Chloro-4-methyl-phenyl)-pyridin-4-yl]-thiazol-2-ylamino}-phenol]	3.6	88	86	3.8	21	38	88	0.15	72	11	27	4.8	0.45	51	0.2	62	84	38	10	52	remaining binding at 10 µM (LTK): 100%; remaining binding at 10 µM (EPHA6): 30%; remaining binding at 10 µM (CDK4-cyclinD3): 13%
